Laboratory results as given in publication PMC7447632, “Highly functionalized β-lactams and 2-ketopiperazines as TRPM8 antagonists with antiallodynic activity” (Scientific Reports, 2020).

Legend:
rat TRPM8 channel = biological target: T1, rat TRPM8 channel (Rattus norvegicus, UniProt Q8R455); assay: Ca2+ microfluorometry, menthol-induced Ca2+ influx in HEK293 cells expressing rat TRPM8; format: cell-based; settings: 100 µM menthol, HEK-rTRPM8; for % Blockade 5 µM: 5 µM compound; for % Blockade 50 µM: 50 µM compound; for IC50: Ca2+ microfluorometry
T1 construct: expressed in transfected cells; host or cells: HEK293 (stably transfected)
T1 sequence (Q8R455 whole entry): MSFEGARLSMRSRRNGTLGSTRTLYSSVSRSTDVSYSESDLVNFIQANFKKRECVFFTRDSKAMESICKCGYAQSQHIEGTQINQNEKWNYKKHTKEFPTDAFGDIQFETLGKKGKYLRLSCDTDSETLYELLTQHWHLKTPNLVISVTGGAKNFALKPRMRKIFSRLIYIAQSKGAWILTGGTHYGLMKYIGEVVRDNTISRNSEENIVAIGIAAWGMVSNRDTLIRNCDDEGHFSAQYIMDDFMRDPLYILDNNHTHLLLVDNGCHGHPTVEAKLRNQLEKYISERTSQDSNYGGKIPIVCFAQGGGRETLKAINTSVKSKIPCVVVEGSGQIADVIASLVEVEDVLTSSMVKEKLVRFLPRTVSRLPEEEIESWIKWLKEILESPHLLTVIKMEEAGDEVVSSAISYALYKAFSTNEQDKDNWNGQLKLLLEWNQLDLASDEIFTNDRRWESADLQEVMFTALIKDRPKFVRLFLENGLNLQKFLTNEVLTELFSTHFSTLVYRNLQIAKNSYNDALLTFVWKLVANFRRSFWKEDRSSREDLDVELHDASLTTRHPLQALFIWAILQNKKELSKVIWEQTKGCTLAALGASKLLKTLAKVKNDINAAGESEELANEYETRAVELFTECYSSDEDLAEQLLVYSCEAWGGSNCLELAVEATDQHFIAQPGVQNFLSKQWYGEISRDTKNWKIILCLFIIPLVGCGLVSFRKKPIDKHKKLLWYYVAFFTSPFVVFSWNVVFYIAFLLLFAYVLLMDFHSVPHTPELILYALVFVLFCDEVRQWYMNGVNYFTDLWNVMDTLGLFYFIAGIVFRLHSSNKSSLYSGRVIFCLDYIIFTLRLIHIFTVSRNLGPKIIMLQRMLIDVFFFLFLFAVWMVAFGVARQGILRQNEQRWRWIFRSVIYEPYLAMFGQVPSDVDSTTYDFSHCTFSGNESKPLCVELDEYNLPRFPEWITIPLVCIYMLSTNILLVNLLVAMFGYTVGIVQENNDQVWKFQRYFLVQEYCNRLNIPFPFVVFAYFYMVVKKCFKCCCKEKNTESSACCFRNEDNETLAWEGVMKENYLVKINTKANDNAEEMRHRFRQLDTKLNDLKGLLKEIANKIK
Protocol: The ability to inhibit menthol-induced Ca^2+ intracellular influx into the cytosol on HEK293 cells heterologously expressing the rat TRPM8 channel was measured and compared to that of AMTB, a well-known TRPM8 antagonist. Representative recordings of fluorescence obtained in microfluorometry experiments for selected compounds are in Supplementary Fig. S3.
(§1) Human embryonic kidney cell line (HEK) stably transfected with rTRPM8 or h-TRPV1 were used as previously described. Briefly, cells were seeded in 96-well plates at a cell density of 30,000 cells 2 days before treatment. Buffer used was HBBS (in mM): 138 NaCl, 5.33 KCl, 1.26 CaCl2, 0.5 MgCl-6H2O, 0.4 MgSO4-7H2O, 4 NaHCO3 0.44 KH2PO4, 0.3 Na2HPO4, pH 7.4. The day of treatment the medium was replaced with 100 µL of the dye loading solution Fluo-4 NW supplemented with probenecid 2.5 mM. After incubation, plates were transferred to a fluorescence plate reader (Polastar BMG). In the experimental protocol, the baseline fluorescence was recorded ([…]) for 3 cycles. After, vehicle, compound at different concentrations and the corresponding antagonist, 10 µM AMTB for TRPM8 or 10 µM Ruthenium Red for TRPV1 were added to the well. Fluorescence intensity was recorded during 7 cycles more. Finally, the agonist 100 µM menthol for TRPM8 or 1 µM capsaicin for TRPV1 was added and fluorescence intensity was recorded during 10 cycles more.
The degree of inhibition of TRPM8 channel gating was calculated by comparison to calcium increase signal elicited by test substances and menthol at 100 µM. Decrease of menthol signal was expressed as percentage of inhibition (%). All data are expressed as mean ± standard deviation (SD). Each condition was assessed by triplicate (n = 3) in 3 independent experiments (N = 3). Z-factor was calculated in each assay using the following equation: […]. In all the experiments Z-factor was ≥ 0.5. To calculate IC50, normalized responses (%) versus log [µM] were adjusted to a non-linear fit with variable slope, a four-parameter dose–response curve following curve Y = 100/(1 + 10^((Log IC50-X)*HillSlope)) where […].

hTRPV1 channels = biological target: T2, hTRPV1 channels (Homo sapiens, UniProt Q8NER1); assay: Ca2+ microfluorometry in HEK cells expressing hTRPV1 (capsaicin); format: cell-based; settings: 1 µM capsaicin; for TRPV1 Blockade (%) 5 µM: 5 µM compound; for TRPV1 Blockade (%) 50 µM: 50 µM compound
T2 construct: expressed in transfected cells; host or cells: HEK (stably transfected)
T2 sequence (Q8NER1 whole entry): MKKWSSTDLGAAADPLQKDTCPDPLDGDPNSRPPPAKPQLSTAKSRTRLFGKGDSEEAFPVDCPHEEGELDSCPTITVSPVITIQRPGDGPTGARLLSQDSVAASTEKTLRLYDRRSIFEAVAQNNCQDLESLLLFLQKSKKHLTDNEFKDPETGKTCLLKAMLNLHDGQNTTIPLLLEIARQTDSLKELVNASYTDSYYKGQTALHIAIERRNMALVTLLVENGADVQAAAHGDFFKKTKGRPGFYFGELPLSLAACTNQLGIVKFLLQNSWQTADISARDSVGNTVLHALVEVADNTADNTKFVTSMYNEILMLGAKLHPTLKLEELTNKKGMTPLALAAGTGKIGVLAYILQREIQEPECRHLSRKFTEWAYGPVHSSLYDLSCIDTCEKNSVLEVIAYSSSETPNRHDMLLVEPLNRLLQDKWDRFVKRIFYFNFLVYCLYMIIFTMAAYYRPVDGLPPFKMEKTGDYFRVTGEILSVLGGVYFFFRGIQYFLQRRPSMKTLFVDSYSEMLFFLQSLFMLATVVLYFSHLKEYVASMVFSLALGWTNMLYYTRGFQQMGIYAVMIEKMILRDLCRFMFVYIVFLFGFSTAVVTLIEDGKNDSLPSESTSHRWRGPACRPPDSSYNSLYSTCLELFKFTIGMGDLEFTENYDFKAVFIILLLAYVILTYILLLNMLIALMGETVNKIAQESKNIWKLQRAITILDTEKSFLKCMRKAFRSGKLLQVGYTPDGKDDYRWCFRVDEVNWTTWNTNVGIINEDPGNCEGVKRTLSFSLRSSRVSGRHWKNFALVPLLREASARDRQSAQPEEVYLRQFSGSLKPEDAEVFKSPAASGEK
Protocol: β-Lactam and 2-ketopiperazine derivatives were also assayed for their activity in cell expressing hTRPV1 channels. No significant antagonist activity was measured for any derivatives within both chemotypes (Supplementary Tables S1, S2, and Fig. S3), indicating their selectivity for TRPM8 channels.
as §1
Table S1. Activity at hTRPV1 of β–lactams derived from phenylalaninol conjugates
Compd. Isomer Isomer TRPV1 Blockade (%)
Table S2. Activity at hTRPV1 of 2-ketopiperazines derived from phenylalaninol

| SMILES | % Blockade 5 µM (rat TRPM8 channel) [%] | % Blockade 50 µM (rat TRPM8 channel) [%] | IC50 (rat TRPM8 channel) [nM] | TRPV1 Blockade (%) 5 µM (hTRPV1 channels) [%] | TRPV1 Blockade (%) 50 µM (hTRPV1 channels) [%] |
| --- | --- | --- | --- | --- | --- |
| O=C(N[C@@H](Cc1ccccc1)CN1C(=O)CC1(Cc1ccccc1)C(=O)OCc1ccccc1)OCc1ccccc1 (stereo partly drawn) [Compound 12ab] | 92.3 ± 6.2 | 100.0 ± 3.1 | 1500 ± 1200 | 9.2±1.4 | 15.3±2.8 |
| O=C(N[C@H](Cc1ccccc1)CN1C(=O)CC1(Cc1ccccc1)C(=O)OCc1ccccc1)OCc1ccccc1 (stereo partly drawn) [Compound 14ab] | 91.0 ± 4.3 | 103 ± 2.7 | 1200 ± 1000 | 4.1±2.4 | 8.7±3.5 |
| COC(=O)C(Cc1ccccc1)N1C[C@H](Cc2ccccc2)N(C(=O)OCc2ccccc2)CC1=O (stereo partly drawn) [Compound 20ab] | 22.3 ± 5.5 | 61.0 ± 5.6 | 18800 ± 1700 | 12.2±3.1 | 19.3±1.2 |
| O=C(OCc1ccccc1)C(Cc1ccccc1)N1C[C@H](Cc2ccccc2)N(C(=O)OCc2ccccc2)CC1=O (stereo partly drawn) [Compound 21ab] | 70.0 ± 6.8 | 92.5 ± 4.3 | 2000 ± 1500 | 6.2±3.1 | 11.8±1.8 |
| CC1C(=O)N(C[C@H](Cc2ccccc2)NC(=O)OCc2ccccc2)[C@@]1(Cc1ccccc1)C(=O)OCc1ccccc1 (stereo partly drawn) [Compound 25ab] | 68.2 ± 5.6 | 89.2 ± 9.2 | 3900 ± 1900 | 3.4±1.7 | 4.3±1.1 |
| C[C@H]1C(=O)N(C(Cc2ccccc2)C(=O)OCc2ccccc2)C[C@H](Cc2ccccc2)N1C(=O)OCc1ccccc1 (stereo partly drawn) [Compound 26ab] | 93.5 ± 3.4 | 102.4 ± 1.5 | 2400 | 6.2±1.8 | 7.3±3.2 |
| CC1C(=O)N(C[C@@H](Cc2ccccc2)NC(=O)OCc2ccccc2)[C@@]1(Cc1ccccc1)C(=O)OCc1ccccc1 (stereo partly drawn) [Compound 31ab] | 91.0 ± 4.3 | 105.0 ± 5.5 | 1600 ± 1300 | 5.7±2.3 | 12.1±1.3 |
| C[C@H]1C(=O)N(C(Cc2ccccc2)C(=O)OCc2ccccc2)C[C@@H](Cc2ccccc2)N1C(=O)OCc1ccccc1 (stereo partly drawn) [Compound 32ab] | 47.4 ± 6.8 | 115.1 ± 4.5 | 17400 ± 1600 | 4.1±2.3 | 6.3±2.3 |
| CC(C(=O)OCc1ccccc1)N1CC(Cc2ccccc2)N(C(=O)OCc2ccccc2)CC1=O (stereo not drawn) [Compound 38ab] | 66.0 ± 3.3 | 105.5 ± 3.2 | 2500 ± 1300 | – | – |
| C[C@@H]1C(=O)N(C[C@@H](Cc2ccccc2)NC(=O)OCc2ccccc2)[C@]1(C)C(=O)OCc1ccccc1 [Compound 39a] | 46.6 ± 11.1 | 100.4 ± 3.5 | 6200 ± 1100 | 2.6±0.9 | 3.2±2.777 |
| CC(C(=O)OCc1ccccc1)N1C[C@@H](Cc2ccccc2)N(C(=O)OCc2ccccc2)[C@H](C)C1=O (stereo partly drawn) [Compound 40ab] | 79.1 ± 3.3 | 107.9 ± 2.5 | 800 ± 1200 | – | – |
